Values of other authors, collected in patent US20090093542A1, “Copper antagonist compositions” (priority 2007, published 2009).

Experiments:
[1] = long-term use in Wilson's disease
[2] = solution of the free base itself

CC(=O)[O-].CC(=O)[O-].[Zn+2] [Zinc acetate]
long-term or major side effects in patients [1]: has not shown any long-term or major side effects

NCCNCCNCCN [trientine, triethylenetetramine]
pH of a solution [2]: 14

CC(C)(S)[C@@H](N)C(=O)O [Penicillamine, 3-mercapto-D-valine]
solubility in alcohol (alcohol): slightly soluble | solubility in ether, acetone, benzene, and carbon tetrachloride (ether, acetone, benzene, carbon tetrachloride): insoluble | solubility in water (water): freely soluble
